Measurements: US7329677B2, “Imidazo(4,5-b)pyridine-derivatives as inducible no-synthase inhibitors” (Altana Pharma AG, priority 2003, dated 2008)
Where a name gives a salt, the structure may show the parent alone.

Experiments:
[1] = biological target: T1, human inducible NO-synthase (Homo sapiens, UniProt P35228); assay: Measurement of inducible NO-synthase activity ([3H]arginine conversion); assay type: biochemical; details: crude cytosolic fraction containing human inducible NO-synthase; 0.1 μM arginine; 45 to 60 min at 37° C.; read-out: Inhibition of iNOS activity [measured as −logIC50 (mol/l)] (converted)
T1 construct: host or cells: crude cytosolic fraction
Method: The assay is performed in 96-well microtiter F-plates (Greiner, Frickenhausen, FRG) in a total volume of 100 μl in the presence of 100 nM calmodulin, 226 μM CaCl2, 477 μM MgCl2, 5 μM flavin-adenine-dinucleotide (FAD), 5 μM flavin mononucleotide (FMN), 0.1 mM NADPH, 7 mM glutathione, 10 μM BH4 and 100 mM HEPES pH 7.2. Arginine concentrations are 0.1 μM for enzyme inhibition experiments. 150000 dpm of [^3H]arginine are added to the assay mixture. Enzyme reaction is started by the addition of 4 μg of a crude cytosolic fraction containing human inducible NO-synthase and the reaction mixture is incubated for 45 to 60 min at 37° C. Enzyme reaction is stopped by adding 10 μl of 2M MESbuffer pH 5,0. […] of the incubation mixture are transferred into a MADP N65 filtration microtiter plate (Millipore, Eschborn, FRG) containing already 50 μl of AG-50W-X8 cation exchange resin (Biorad, München, FRG). […] Scintillation plates are counted in a szintillation counter.
For the measurement of inducible NO-synthaseinhibiting potencies of compounds increasing concentrations of inhibitors were included into the incubation mixture. IC50-values were calculated from the percent inhibition at given concentrations by nonlinear least square fitting.

## COc1ccnc(CC(C)c2nc3cccnc3[nH]2)c1 (racemic) (as salt: hydrochloride) [Example 1, (R,S)-2-[3-(4-Methoxypyridin-2-yl)prop-2-yl]-3H-imidazo[4,5-b]pyridine hydrochloride]
other
  melting point: 61 to 64 °C

## COc1ccnc(CC(C)c2nc3cccnc3[nH]2)c1 (racemic) [Example 1, (R,S)-2-[3-(4-Methoxypyridin-2-yl)prop-2-yl]-3H-imidazo[4,5-b]pyridine hydrochloride]
[1]
  IC50: 70.8 nM
